18 molecules from patent US9169254B2, “Spiroimidazolone derivative” (Chugai Seiyaku Kabushiki Kaisha, priority 2009, dated 2015) can be followed below.

The assay addresses T1, human PTH1 receptor (Homo sapiens, UniProt Q03431).
T1 sequence (Q03431 27-593): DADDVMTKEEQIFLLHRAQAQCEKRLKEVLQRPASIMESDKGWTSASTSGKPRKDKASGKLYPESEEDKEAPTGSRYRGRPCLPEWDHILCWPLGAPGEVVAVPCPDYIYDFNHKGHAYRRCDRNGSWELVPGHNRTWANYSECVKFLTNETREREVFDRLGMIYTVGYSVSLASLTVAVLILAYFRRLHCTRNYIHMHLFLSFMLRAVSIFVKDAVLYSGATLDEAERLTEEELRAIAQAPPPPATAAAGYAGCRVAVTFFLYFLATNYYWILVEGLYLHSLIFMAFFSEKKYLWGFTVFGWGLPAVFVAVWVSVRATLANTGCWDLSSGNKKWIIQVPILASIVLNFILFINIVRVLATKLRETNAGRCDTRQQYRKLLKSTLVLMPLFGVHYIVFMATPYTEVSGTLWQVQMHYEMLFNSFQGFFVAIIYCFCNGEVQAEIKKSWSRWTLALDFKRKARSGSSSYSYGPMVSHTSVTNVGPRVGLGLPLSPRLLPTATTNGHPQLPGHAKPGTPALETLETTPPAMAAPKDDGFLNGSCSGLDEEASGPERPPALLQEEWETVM
The assay is described as follows: In vitro cAMP signal activity in HKRK-B7 cells (LLC-PK1 cells overexpressing the human PTH1 receptor). In kind it is cell-based. Conditions: HKRK-B7 cells; compound at 1×10^−3 M; cAMP produced as percentage of that produced by hPTH(1-34) at 100 nM.

SMILES strings stand for the structures.

For `O=C(Cc1ccccn1)N1CCCC(C2=NC3(CCN(S(=O)(=O)CCc4cccc5ccccc45)CC3)C(=O)N2)C1` (stereo not drawn) [Compound 435, 8-(2-naphthalen-1-yl-ethanesulfonyl)-2-[1-(2-pyridin-2-yl-acetyl)-piperidin-3-yl]-1,3,8-triaza-spiro[4.5]dec-1-en-4-one], the “cAMP production activity (%)” value came to 17%.

Consider `Cc1cc(N(C)C(N)=O)cc(C)c1/C=C/S(=O)(=O)N1CCC2(CC1)N=C(CCCCCCCCCc1ccccc1)NC2=O` [Compound 1365, 1-(3,5-Dimethyl-4-{(E)-2-[4-oxo-2-(9-phenyl-nonyl)-1,3,8-triaza-spiro[4.5]dec-1-ene-8-sulfonyl]-vinyl}-phenyl)-1-methyl-urea], for which the “cAMP production activity (%)” value was 108%.

In the case of `Cc1cc(C(=O)N2CCC(C)(O)CC2)cc(C)c1/C=C/S(=O)(=O)N1CCC2(CC1)N=C(c1ccc(Cl)c(OC(C)(C)C(F)(F)F)c1)NC2=O` [Compound 1210, 2-[4-chloro-3-(2,2,2-trifluoro-1,1-dimethyl-ethoxy)-phenyl]-8-{(E)-2-[4-(4-hydroxy-4-methyl-piperidine-1-carbonyl)-2,6-dimethyl-phenyl]-ethenesulfonyl}-1,3,8-triaza-spiro[4.5]dec-1-en-4-one], the “cAMP production activity (%)” value was 86%.

Take `CC[C@H]1CC[C@H](C2=NC3(CCN(S(=O)(=O)CCc4ccc(N5C(=O)NC(=O)C5(C)C)cc4C)CC3)C(=O)N2)CC1` [Compound 887, 1-(4-{2-[2-(4-ethyl-cyclohexyl)-4-oxo-1,3,8-triaza-spiro[4.5]dec-1-ene-8-sulfonyl]-ethyl}-3-methyl-phenyl)-5,5-dimethyl-imidazolidine-2,4-dione]: the “cAMP production activity (%)” value was determined as 58%.

Consider `Cc1cc(C(=O)N2CCCC2)ccc1CCS(=O)(=O)N1CCC2(CC1)N=C(c1cccc(C(F)(F)F)c1)NC2=O` [Compound 288, 8-{2-[2-methyl-4-(pyrrolidine-1-carbonyl)-phenyl]-ethanesulfonyl}-2-(3-trifluoromethyl-phenyl)-1,3,8-triaza-spiro[4.5]dec-1-en-4-one], for which the “cAMP production activity (%)” value worked out at 82%.

On to `Cc1cc(CN(CCO)C(=O)OC(C)(C)C)ccc1/C=C/S(=O)(=O)N1CCC2(CC1)N=C(C1CCCCC1)NC2=O` [Compound 708, {4-[(E)-2-(2-Cyclohexyl-4-oxo-1,3,8-triaza-spiro[4.5]dec-1-ene-8-sulfonyl)-vinyl]-3-methyl-benzyl}-(2-hydroxy-ethyl)-carbamic acid tert-butyl ester], for which the “cAMP production activity (%)” value is recorded as 38%.

On to `Cc1cc(C(=O)N2CCC(O)(CO)CC2)cc(C)c1/C=C/S(=O)(=O)N1CCC2(CC1)N=C(c1cccc(C(F)(F)F)c1)NC2=O` [Compound 386, 8-{(E)-2-[4-(4-hydroxy-4-hydroxymethyl-piperidine-1-carbonyl)-2,6-dimethyl-phenyl]-ethenesulfonyl}-2-(3-trifluoromethyl-phenyl)-1,3,8-triaza-spiro[4.5]dec-1-en-4-one], for which the “cAMP production activity (%)” value was 86%.

`Cc1cc(C(=O)N2CCC(C)(O)CC2)cc(C)c1/C=C/[S@TB4](=O)(=O)N1CCC2(CC1)N=C(c1cccc(CC(F)(F)F)c1)NC2=O` [Compound 1097, 8-{(E)-2-[4-(4-hydroxy-4-methyl-piperidine-1-carbonyl)-2,6-dimethyl-phenyl]-ethenesulfonyl}-2-[3-(2,2,2-trifluoro-ethyl)-phenyl]-1,3,8-triaza-spiro[4.5]dec-1-en-4-one]: the “cAMP production activity (%)” value was 90%.

With `O=C1NC(C2CCC(CCC(F)(F)F)CC2)=NC12CCN(S(=O)(=O)/C=C/c1cccc3c1ccn3CCOC[C@@H](O)CO)CC2` (stereo partly drawn) [Compound 704, 8-((E)-2-{1-[2-((S)-2,3-Dihydroxy-propoxy)-ethyl]-1H-indol-4-yl}-ethenesulfonyl)-2-[4-(3,3,3-trifluoro-propyl)-cyclohexyl]-1,3,8-triaza-spiro[4.5]dec-1-en-4-one], the “cAMP production activity (%)” value is on record as 68%.

As for `Cc1cc(N(C)C(N)=O)cc(C)c1CCS(=O)(=O)N1CCC2(CC1)N=C(c1cccc(CCCC(F)(F)F)c1)NC2=O` [Compound 1359, 1-[3,5-dimethyl-4-(2-{4-oxo-2-[3-(4,4,4-trifluoro-butyl)-phenyl]-1,3,8-triaza-spiro[4.5]dec-1-ene-8-sulfonyl}-ethyl)-phenyl]-1-methyl-urea], the “cAMP production activity (%)” value came out at 165%.

Consider `Cc1cc(S(=O)(=O)Nc2cccnc2)ccc1CCS(=O)(=O)N1CCC2(CC1)N=C(c1cccc(C(F)(F)F)c1)NC2=O` [Compound 294, 3-methyl-4-{2-[4-oxo-2-(3-trifluoromethyl-phenyl)-1,3,8-triaza-spiro[4.5]dec-1-ene-8-sulfonyl]-ethyl}-N-pyridin-3-yl-benzenesulfonamide], for which the “cAMP production activity (%)” value is on record as 106%.

For `Cc1cc(N(C)C(N)=O)cc(C)c1CCS(=O)(=O)N1CCC2(CC1)N=C(C(C1CC1)C1CC1)NC2=O` [Compound 1052, 1-{4-[2-(2-dicyclopropylmethyl-4-oxo-1,3,8-triaza-spiro[4.5]dec-1-ene-8-sulfonyl)-ethyl]-3,5-dimethyl-phenyl}-1-methyl-urea], the “cAMP production activity (%)” value was 62%.

For the molecule `CC(=O)Nc1ccc(CCS(=O)(=O)N2CCC3(CC2)N=C(C2CCC(CC(F)(F)C(F)(F)F)CC2)NC3=O)c(C)c1` (stereo not drawn) [Compound 1080, N-[3-Methyl-4-(2-{4-oxo-2-[4-(2,2,3,3,3-pentafluoro-propyl)-cyclohexyl]-1,3,8-triaza-spiro[4.5]dec-1-ene-8-sulfonyl}-ethyl)-phenyl]-acetamide], the “cAMP production activity (%)” value amounted to 81%.

With `Cc1cc(C(=O)N2CCN(C(C)C)CC2)ccc1CCS(=O)(=O)N1CCC2(CC1)N=C(c1cccc(OC(F)(F)F)c1)NC2=O` [Compound 849, 8-{2-[4-(4-isopropyl-piperazine-1-carbonyl)-2-methyl-phenyl]-ethanesulfonyl}-2-(3-trifluoromethoxy-phenyl)-1,3,8-triaza-spiro[4.5]dec-1-en-4-one], the “cAMP production activity (%)” value is reported as 124%.

As for `CC(=O)Nc1ccc(CCS(=O)(=O)N2CCC3(CC2)N=C(C2CCC(OCCC(F)(F)F)CC2)NC3=O)c(C)c1` (stereo not drawn) [Compound 921, N-[3-methyl-4-(2-{4-oxo-2-[4-(3,3,3-trifluoro-propoxy)-cyclohexyl]-1,3,8-triaza-spiro[4.5]dec-1-ene-8-sulfonyl}-ethyl)-phenyl]-acetamide], the “cAMP production activity (%)” value was determined as 59%.

For `COC(=O)CCC(=O)N1CCN(C(=O)c2cc(C)c(/C=C/S(=O)(=O)N3CCC4(CC3)N=C(c3cccc(OC(F)(F)F)c3)NC4=O)c(C)c2)CC1` [Compound 448, 4-[4-(3,5-dimethyl-4-{(E)-2-[4-oxo-2-(3-trifluoromethoxy-phenyl)-1,3,8-triaza-spiro[4.5]dec-1-ene-8-sulfonyl]-vinyl}-benzoyl)-piperazin-1-yl]-4-oxo-butyric acid methyl ester], the “cAMP production activity (%)” value was found to be 64%.

On to `O=C1NC(C2CCCCC2)=NC12CCN(S(=O)(=O)CCc1cccc3cc[nH]c13)CC2` [Compound 835, 2-Cyclohexyl-8-[2-(1H-indol-7-yl)-ethanesulfonyl]-1,3,8-triaza-spiro[4.5]dec-1-en-4-one], for which the “cAMP production activity (%)” value turned out to be 50%.

With `Cc1cc(OC[C@H](O)CO)cc(C)c1/C=C/S(=O)(=O)N1CCC2(CC1)N=C(c1ccc(F)c(C(F)(F)F)c1)NC2=O` [Compound 242, 8-{(E)-2-[4-((R)-2,3-Dihydroxy-propoxy)-2,6-dimethyl-phenyl]-ethenesulfonyl}-2-(4-fluoro-3-trifluoromethyl-phenyl)-1,3,8-triaza-spiro[4.5]dec-1-en-4-one], the “cAMP production activity (%)” value turned out to be 75%.
